Assays:
AP sites [1] = assay: microPET of [^11C]MX in melanoma (WM164) xenografts, TMZ-treated vs non-treated; type: in vivo, mice; details: melanoma xenograft
Experimental: (§1) Melanoma and glioma xenografts were prepared according to previously published procedures. Briefly, glioma (U87) and melanoma (WM164) tumor cells (5×10^6) were injected into the bilateral flanks of female athymic NRC nude mice (6-8 weeks of age). When the volume of tumor nodules reached 150-200 mm^3, mice are randomly assigned to control or treatment groups (4 mice/group).
(§2) Following MRI studies, the mice were transferred to a Concord R4 microPET scanner under anesthesia. The same holder was used for microPET studies so that the tumor positions of the mice remain unchanged in order to facilitate image coregistration with MRI. Subsequently, dynamic microPET scans were performed over 60 min in a list mode, immediately after a bolus injection of ca. 500 μCi of [^11C]MX via the tail vein. Body temperature in the anesthetized animals was monitored using a rectal temperature probe and maintained at 37+/−2° C. with a heating lamp or a heating pad.
(§3) Following MRI and microPET studies, we conducted quantitative image analysis in order to evaluate the in vivo pharmacokinetic profiles of [^11C]MX in tumor tissues. We defined the tumor tissues as the region of interest (ROI) through coregistration of microPET images with MRI images. The co-registered images were used for quantitative image analysis to determine [^11C]MX uptake and retention associated with tumor tissues. The radioactivity concentration in the tumor regions is expressed in terms of standard uptake volume (SUV) [(μCi/cc)/(uCi/g)] as a function of time.
Because TMZ, like dacarbazine, has been used in the treatment patients with metastatic malignant melanoma, we first conducted microPET studies in human (WM164) melanoma xenograft tumor model. In each experiment, two mice bearing melanoma xenografts were used, one treated with TMZ (80 mg/kg) to induce DNA damage and the other used as negative control. Prior to microPET scans, the mice were placed in a 7T MRI scanner and T2-weighted MRI images were acquired following the above-mentioned protocol. […]

AP sites [2] = assay: microPET of [^11C]MX in flank glioma (U87) xenografts, TMZ-treated vs non-treated; type: in vivo, mice; details: flank glioma xenograft; TMZ 80 mg/kg; 60 min scan
Experimental: as §1
as §2, with “Subsequently, dynamic microPET scans were performed over 60 min in a list mode, immediately after a bolus injection of ca. 500 μCi of [^11C]MX via the tail vein.” left out
as §3, with “We defined the tumor tissues as the region of interest (ROI) through coregistration of microPET images with MRI images.” left out
Malignant glioma is another type of cancer that can be effectively treated with TMZ because TMZ can readily penetrate the blood-brain barrier. […]

AP sites [3] = assay: In vivo blocking experiment with unlabelled MX (microPET, glioma tumors); set-up: species or system mice; details: TMZ 80 mg/kg; unlabelled MX 2-10 mg/kg 30 min before [^11C]MX 2 mCi/kg; p value=0.003
Experimental: FIG. 4 illustrates; (A) plots of time-radioactivity courses of [^11C]MX in the glioma tumors before and after blocking by unlabelled MX; and (B) a graph showing average SUV between 0-60 min (n=4, where n is the number of tumors imaged and analyzed). Decrease of radioactivity concentration indicates in vivo blocking of AP binding sites by unlabeled MX (p value=0.003).
Thus, we conducted in vivo blocking experiment in tumor mice with unlabelled MX as a further test of whether the difference in radioactivity concentrations between TMZ-treated and untreated tumors is due to specific binding of [^11C]MX to AP sites. For this purpose, 4 tumor-bearing mice were treated with TMZ (80 mg/kg) for 10 min. Following the treatment, two mice were injected with unlabelled MX (2-10 mg/kg) and two were injected with vehicle control. Thirty minutes later, 2 mCi/kg of [^11C]MX was administered to each mouse and microPET imaging was performed. In each case, a vehicle-treated and an unlabeled MX-treated mouse were imaged side-by-side. Dynamic acquisition was carried out for 60 min in list mode.

AP sites [4] = assay: ARP assay of AP sites in A375 melanoma cells; type: cell-based; details: 12.5 mM co-treatment with TMZ, 24 hr
Experimental: FIG. 5 illustrates a graph showing AP sites increased in melanoma cells (A375) after treatment with TMZ in a dose-dependent manner. Using ARP assay, formation of AP sites in A375 melanoma cells were measured. Cells were treated with TMZ (0-1500 μM) alone or TMZ plus MX (12.5 mM) for 24 hr for a dose-dependent assay (black), or treated with TMZ and MX (12.5 mM) for 24 hr, or treated with TMZ and F422 (12.5 mM) for 24 hours.

SMILES	radioactivity concentration in tumor, TMZ-treated vs non-treated mice (AP sites [1]; TMZ 80 mg/kg, 10 min post injection of [^11C]MX (ca. 2 mCi/kg i.v.)) [fold]	tumor uptake of [^11C]MX in TMZ-treated vs non-TMZ treated mice (AP sites [1]; TMZ 80 mg/kg, 60 min scan)	entry of [^11C]MX into tumor tissue (AP sites [1]; i.v. ca. 2 mCi/kg, microPET)	retention of [^11C]MX in tumor regions (AP sites [2])	concentration of tumor-associated radioactivity after blocking with unlabelled MX (AP sites [3])	ARP detected AP sites on co-treatment with TMZ (AP sites [4])
[11CH3]ON [[^11C]MX, (^11C)methoxyamine]	1.6	increased uptake	readily entered the tumor tissue at early time points	higher in TMZ-treated tumor regions than in non-treated tumor regions	–	–
CON [MX, methoxyamine]	–	–	–	–	significantly decreased	reduced the ARP detected AP sites
